Experiments:
Format in all cases: cell-based, human
H1975 = assay: Non Small Cell Lung Cancer proliferation assay (Alamar Blue reduction), H1975; settings: Homo sapiens, NCI-H1975; primary screening; 10 μM compound in 1% DMSO (v/v); read-out: percentage inhibition H1975
In short: (§1)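 Human NSCLC cells were seeded at 250 cells/well with compound at a final 1% DMSO and treated for 48 hours at 37° C. 1% DMSO served as the high control.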

H3255 = assay: Non Small Cell Lung Cancer proliferation assay (Alamar Blue reduction), H3255; settings: Homo sapiens, NCI-H3255; primary screening; 10 μM compound in 1% DMSO (v/v); read-out: percentage inhibition H3255
In short: as §1

H2030 = assay: Non Small Cell Lung Cancer proliferation assay (Alamar Blue reduction), H2030; settings: Homo sapiens, NCI-H2030; primary screening; 10 μM compound in 1% DMSO (v/v); read-out: percentage inhibition H2030
In short: as §1

H1650 = assay: Non Small Cell Lung Cancer proliferation assay (Alamar Blue reduction), H1650; settings: Homo sapiens, NCI-H1650; primary screening; 10 μM compound in 1% DMSO (v/v); read-out: percentage inhibition H1650
In short: as §1

O=c1c2c(cnn1-c1ccccc1)SCCS2 [compound 195988]
inhibition at 10 µM (H1975): -7%
inhibition at 10 µM (H3255): -18%
inhibition at 10 µM (H2030): 7%
inhibition at 10 µM (H1650): 13%

O=c1c(SCc2ccccc2)c(N2CCCCC2)cnn1-c1ccccc1 [compound 195989]
inhibition at 10 µM (H1975): 35%
inhibition at 10 µM (H3255): -27%
inhibition at 10 µM (H2030): 6%
inhibition at 10 µM (H1650): 21%

O=c1c(Cl)cc(Cl)nn1-c1ccccc1 [compound 196392]
inhibition at 10 µM (H1975): 99%
inhibition at 10 µM (H3255): 111%
inhibition at 10 µM (H2030): -13%
inhibition at 10 µM (H1650): 87%

O=c1ccc(Oc2nc(N3CCCCC3)nc(N3CCCCC3)n2)nn1-c1ccccc1 [compound 196618]
inhibition at 10 µM (H1975): -14%
inhibition at 10 µM (H3255): -33%
inhibition at 10 µM (H2030): 12%
inhibition at 10 µM (H1650): 3%

O=C(O)c1ccc(-n2ncc(Cl)c(Cl)c2=O)cc1 [compound 197940]
inhibition at 10 µM (H1975): -6%
inhibition at 10 µM (H3255): -37%
inhibition at 10 µM (H2030): 2%
inhibition at 10 µM (H1650): 11%

O=C(COc1cnn(-c2ccccc2)c(=O)c1Cl)c1ccccc1 [compound 199759]
inhibition at 10 µM (H1975): 36%
inhibition at 10 µM (H3255): 66%
inhibition at 10 µM (H2030): 9%
inhibition at 10 µM (H1650): 16%

O=C(COCCOc1cnn(-c2ccccc2)c(=O)c1Cl)c1ccccc1 [compound 199760]
inhibition at 10 µM (H1975): -22%
inhibition at 10 µM (H3255): 6%
inhibition at 10 µM (H2030): 21%
inhibition at 10 µM (H1650): 12%

CCOC(=O)N(CCOc1cnn(-c2ccccc2)c(=O)c1)C(=O)OCC [compound 199761]
inhibition at 10 µM (H1975): -25%
inhibition at 10 µM (H3255): 41%
inhibition at 10 µM (H2030): 6%
inhibition at 10 µM (H1650): -7%

CCOC(=O)NCCOc1cnn(-c2ccc(Cl)cc2)c(=O)c1Cl [compound 199764]
inhibition at 10 µM (H1975): -14%
inhibition at 10 µM (H3255): 2%
inhibition at 10 µM (H2030): -9%
inhibition at 10 µM (H1650): -11%

NCCOc1cnn(-c2ccccc2Cl)c(=O)c1Cl [compound 200052]
inhibition at 10 µM (H1975): 5%
inhibition at 10 µM (H3255): -18%
inhibition at 10 µM (H2030): 12%
inhibition at 10 µM (H1650): -9%

CCOC(=O)NCCOc1cnn(-c2ccccc2)c(=O)c1Cl [compound 201622]
inhibition at 10 µM (H1975): -23%
inhibition at 10 µM (H3255): 33%
inhibition at 10 µM (H2030): 4%
inhibition at 10 µM (H1650): 5%

O=c1c(Cl)c(Cl)c(Cl)nn1-c1ccc(Br)cc1 [compound 202245]
inhibition at 10 µM (H1975): 96%
inhibition at 10 µM (H3255): 71%
inhibition at 10 µM (H2030): -8%
inhibition at 10 µM (H1650): 48%

COc1cc(Cl)nn(-c2ccccc2)c1=O [compound 206569]
inhibition at 10 µM (H1975): 3%
inhibition at 10 µM (H3255): 22%
inhibition at 10 µM (H2030): 7%
inhibition at 10 µM (H1650): -2%

O=c1c(SCc2ccc(Cl)cc2Cl)c(SCc2ccc(Cl)cc2Cl)cnn1-c1ccccc1 [compound 208619]
inhibition at 10 µM (H1975): 1%
inhibition at 10 µM (H3255): -19%
inhibition at 10 µM (H2030): -12%
inhibition at 10 µM (H1650): -4%

O=c1c(SCc2ccccc2)c(SCc2ccccc2)cnn1-c1ccccc1 [compound 208693]
inhibition at 10 µM (H1975): -7%
inhibition at 10 µM (H3255): 0%
inhibition at 10 µM (H2030): -11%
inhibition at 10 µM (H1650): -6%

COc1cnn(-c2ccc(C)cc2)c(=O)c1SCc1ccccc1 [compound 208694]
inhibition at 10 µM (H1975): -29%
inhibition at 10 µM (H3255): -16%
inhibition at 10 µM (H2030): 3%
inhibition at 10 µM (H1650): -21%

O=c1c(SCc2ccccc2Cl)c(SCc2ccccc2Cl)cnn1-c1ccccc1 [compound 208695]
inhibition at 10 µM (H1975): -13%
inhibition at 10 µM (H3255): -2%
inhibition at 10 µM (H2030): -11%
inhibition at 10 µM (H1650): -14%

CCCCSc1cnn(-c2ccccc2)c(=O)c1SCc1ccccc1 [compound 208696]
inhibition at 10 µM (H1975): -19%
inhibition at 10 µM (H3255): 37%
inhibition at 10 µM (H2030): 4%
inhibition at 10 µM (H1650): -2%

O=c1c(Cl)c(SC(c2ccccc2)c2ccccc2)cnn1-c1ccccc1 [compound 208697]
inhibition at 10 µM (H1975): -16%
inhibition at 10 µM (H3255): 31%
inhibition at 10 µM (H2030): 4%
inhibition at 10 µM (H1650): -3%

O=c1c(SCc2ccccc2)c(SCc2ccccc2)cnn1-c1ccc(Br)cc1 [compound 208699]
inhibition at 10 µM (H1975): -22%
inhibition at 10 µM (H3255): 19%
inhibition at 10 µM (H2030): 10%
inhibition at 10 µM (H1650): -12%

COc1cnn(-c2ccccc2)c(=O)c1SCc1ccc(Cl)cc1Cl [compound 208701]
inhibition at 10 µM (H1975): -25%
inhibition at 10 µM (H3255): 7%
inhibition at 10 µM (H2030): 7%
inhibition at 10 µM (H1650): -4%

O=c1c(SCc2ccccc2)cc(Cl)nn1-c1ccccc1 [compound 208702]
inhibition at 10 µM (H1975): -16%
inhibition at 10 µM (H3255): 0%
inhibition at 10 µM (H2030): -15%
inhibition at 10 µM (H1650): 3%

Cc1cccc(-n2ncc(SCc3ccccc3)c(SCc3ccccc3)c2=O)c1 [compound 208703]
inhibition at 10 µM (H1975): -18%
inhibition at 10 µM (H3255): 16%
inhibition at 10 µM (H2030): 9%
inhibition at 10 µM (H1650): 2%

O=c1c(SCc2ccc(Cl)cc2)c(SCc2ccccc2)cnn1-c1ccccc1 [compound 208704]
inhibition at 10 µM (H1975): -6%
inhibition at 10 µM (H3255): -23%
inhibition at 10 µM (H2030): -15%
inhibition at 10 µM (H1650): -10%

O=c1c(SCc2ccccc2)c(SCc2ccc(Cl)cc2)cnn1-c1ccccc1 [compound 208705]
inhibition at 10 µM (H1975): -20%
inhibition at 10 µM (H3255): 0%
inhibition at 10 µM (H2030): 10%
inhibition at 10 µM (H1650): -4%

CC(C)Oc1c(S)cnn(-c2ccccc2)c1=O [compound 213495]
inhibition at 10 µM (H1975): -15%
inhibition at 10 µM (H3255): 8%
inhibition at 10 µM (H2030): -5%
inhibition at 10 µM (H1650): 4%

Cc1cc(-n2ccc3c(C#N)c(=O)n(-c4ccccc4)nc3c2=O)[nH]n1 [compound 216994]
inhibition at 10 µM (H1975): 1%
inhibition at 10 µM (H3255): -3%
inhibition at 10 µM (H2030): 4%
inhibition at 10 µM (H1650): 1%

O=c1ccc(Cl)nn1-c1ccc(Br)cc1 [compound 222922]
inhibition at 10 µM (H1975): 3%
inhibition at 10 µM (H3255): -7%
inhibition at 10 µM (H2030): -30%
inhibition at 10 µM (H1650): -20%

Cc1c(Oc2ccccc2)nnn1-c1cnn(-c2ccccc2)c(=O)c1Br [compound 223337]
inhibition at 10 µM (H1975): 5%
inhibition at 10 µM (H3255): 61%
inhibition at 10 µM (H2030): -14%
inhibition at 10 µM (H1650): 13%

O=c1c(Br)c(-n2cc(CO)nn2)cnn1-c1ccccc1 [compound 224256]
inhibition at 10 µM (H1975): 102%
inhibition at 10 µM (H3255): 110%
inhibition at 10 µM (H2030): 1%
inhibition at 10 µM (H1650): 103%

Cc1ccc(-n2nc(C#N)c(-c3ccccc3)c(C#N)c2=O)cc1 [compound 224358]
inhibition at 10 µM (H1975): -9%
inhibition at 10 µM (H3255): -14%
inhibition at 10 µM (H2030): -2%
inhibition at 10 µM (H1650): -4%

CSc1cnn(-c2ccccc2)c(=O)c1SCc1ccccc1 [compound 224764]
inhibition at 10 µM (H1975): -5%
inhibition at 10 µM (H3255): -32%
inhibition at 10 µM (H2030): -10%
inhibition at 10 µM (H1650): 21%

Cc1ccccc1-n1ncc(SCc2ccccc2)c(Cl)c1=O [compound 224765]
inhibition at 10 µM (H1975): 1%
inhibition at 10 µM (H3255): -12%
inhibition at 10 µM (H2030): -15%
inhibition at 10 µM (H1650): 7%

CCCCSc1cnn(-c2ccccc2)c(=O)c1SCCCC [compound 224766]
inhibition at 10 µM (H1975): -29%
inhibition at 10 µM (H3255): 24%
inhibition at 10 µM (H2030): 95%
inhibition at 10 µM (H1650): -12%

O=c1c(SCc2ccccc2)c(N2CCOCC2)cnn1-c1ccccc1 [compound 224770]
inhibition at 10 µM (H1975): -8%
inhibition at 10 µM (H3255): 24%
inhibition at 10 µM (H2030): -8%
inhibition at 10 µM (H1650): 65%

O=c1c(SCc2ccc(Cl)cc2Cl)c(SC2CCCCO2)cnn1-c1ccccc1 (stereo not shown) [compound 224771]
inhibition at 10 µM (H1975): -21%
inhibition at 10 µM (H3255): 30%
inhibition at 10 µM (H2030): 3%
inhibition at 10 µM (H1650): -12%

CCOC(=O)COc1cnn(-c2ccccc2)c(=O)c1Cl [compound 225042]
inhibition at 10 µM (H1975): 10%
inhibition at 10 µM (H3255): 5%
inhibition at 10 µM (H2030): 6%
inhibition at 10 µM (H1650): -18%

Cc1c(C(=O)c2ccccc2)nn(-c2ccccc2Cl)c(=N)c1C#N [compound 227247]
inhibition at 10 µM (H1975): -9%
inhibition at 10 µM (H3255): 11%
inhibition at 10 µM (H2030): -1%
inhibition at 10 µM (H1650): -16%

Cc1ccc(-n2nc(C(=O)O)c(/C=C/c3ccc(Cl)cc3Cl)c(C#N)c2=O)cc1C [compound 227626]
inhibition at 10 µM (H1975): -14%
inhibition at 10 µM (H3255): 71%
inhibition at 10 µM (H2030): 0%
inhibition at 10 µM (H1650): -15%

Cc1ccc(C(C)C)c(OCC(=O)Oc2ccc(=O)n(-c3ccccc3)n2)c1 [compound 228706]
inhibition at 10 µM (H1975): -11%
inhibition at 10 µM (H3255): -25%
inhibition at 10 µM (H2030): 5%
inhibition at 10 µM (H1650): -16%
